Results reported in ChEMBL document CHEMBL1154352, “Toll-like receptor 7 selective synthetic oligoribonucleotide agonists: synthesis and structure-activity relationship studies” (J Med Chem, 2009).
Active and inactive are the calls of the source. No cut-off for these calls is given here.

What was measured:
[1] = target: T1, Toll-like receptor 9 (Mus musculus) (UniProt Q9EQU3); experiment: Activation of mouse TLR9 expressed in HEK293 assessed as induction of NF-kappaB activity reporter gene assay; assay type: cell-based
T1 sequence (whole entry): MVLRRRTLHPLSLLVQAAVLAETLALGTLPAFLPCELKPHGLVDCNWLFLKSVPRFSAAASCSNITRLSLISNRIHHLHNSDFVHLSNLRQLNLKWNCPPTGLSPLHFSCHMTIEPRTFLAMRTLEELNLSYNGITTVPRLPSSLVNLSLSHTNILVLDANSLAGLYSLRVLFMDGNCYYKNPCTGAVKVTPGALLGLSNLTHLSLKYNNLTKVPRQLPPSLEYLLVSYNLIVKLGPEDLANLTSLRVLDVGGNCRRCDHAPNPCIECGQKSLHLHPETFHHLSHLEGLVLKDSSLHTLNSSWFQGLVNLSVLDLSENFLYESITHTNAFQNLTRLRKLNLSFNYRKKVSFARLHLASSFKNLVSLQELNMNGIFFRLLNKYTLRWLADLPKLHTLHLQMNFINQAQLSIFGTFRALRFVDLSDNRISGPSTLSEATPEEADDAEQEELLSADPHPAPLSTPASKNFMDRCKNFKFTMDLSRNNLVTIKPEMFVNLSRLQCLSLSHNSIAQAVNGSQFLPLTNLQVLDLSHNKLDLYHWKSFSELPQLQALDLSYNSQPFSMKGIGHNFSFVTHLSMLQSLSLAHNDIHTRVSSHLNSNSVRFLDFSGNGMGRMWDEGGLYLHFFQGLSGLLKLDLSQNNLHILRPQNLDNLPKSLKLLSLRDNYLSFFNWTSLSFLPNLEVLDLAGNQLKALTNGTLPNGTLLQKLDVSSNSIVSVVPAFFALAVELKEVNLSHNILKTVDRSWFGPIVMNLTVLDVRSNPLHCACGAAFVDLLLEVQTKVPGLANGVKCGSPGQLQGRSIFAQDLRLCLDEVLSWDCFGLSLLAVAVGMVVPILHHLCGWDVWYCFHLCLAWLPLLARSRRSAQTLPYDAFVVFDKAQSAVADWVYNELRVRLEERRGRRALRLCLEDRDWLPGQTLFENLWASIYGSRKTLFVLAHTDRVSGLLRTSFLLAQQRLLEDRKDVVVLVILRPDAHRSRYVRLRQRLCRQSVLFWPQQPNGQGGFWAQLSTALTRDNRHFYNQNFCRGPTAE

[2] = target: Toll-like receptor 3 (Homo sapiens) (UniProt O15455); experiment: Activation of human TLR3 expressed in HEK293 assessed as induction of NF-kappaB activity reporter gene assay; assay type: cell-based
Sequence of Toll-like receptor 3 (Homo sapiens) (O15455 whole entry): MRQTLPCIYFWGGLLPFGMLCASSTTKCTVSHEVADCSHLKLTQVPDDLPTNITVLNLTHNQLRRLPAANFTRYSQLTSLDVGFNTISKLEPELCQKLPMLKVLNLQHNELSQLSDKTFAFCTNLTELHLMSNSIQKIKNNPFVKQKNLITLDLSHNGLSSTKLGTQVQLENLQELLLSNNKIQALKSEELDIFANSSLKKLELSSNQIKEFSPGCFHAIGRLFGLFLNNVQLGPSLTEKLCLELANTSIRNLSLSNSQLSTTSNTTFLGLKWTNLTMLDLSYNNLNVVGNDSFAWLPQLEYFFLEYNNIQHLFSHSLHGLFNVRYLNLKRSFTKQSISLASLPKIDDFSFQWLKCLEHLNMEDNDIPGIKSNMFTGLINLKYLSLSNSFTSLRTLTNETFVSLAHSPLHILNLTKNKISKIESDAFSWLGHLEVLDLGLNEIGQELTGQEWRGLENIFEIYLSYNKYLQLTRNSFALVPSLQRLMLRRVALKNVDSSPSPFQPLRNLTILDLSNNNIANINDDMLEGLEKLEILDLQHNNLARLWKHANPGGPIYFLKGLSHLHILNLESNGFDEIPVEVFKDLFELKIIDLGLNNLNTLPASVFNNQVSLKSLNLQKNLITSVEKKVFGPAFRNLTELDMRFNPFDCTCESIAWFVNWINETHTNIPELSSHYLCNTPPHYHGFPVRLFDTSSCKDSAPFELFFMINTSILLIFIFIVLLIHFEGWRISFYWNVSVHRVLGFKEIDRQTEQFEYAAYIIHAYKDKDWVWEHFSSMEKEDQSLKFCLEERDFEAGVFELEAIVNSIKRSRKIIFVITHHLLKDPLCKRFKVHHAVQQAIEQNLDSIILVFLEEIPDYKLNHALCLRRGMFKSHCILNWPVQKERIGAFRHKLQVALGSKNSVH

| Activity [1] | Activity [2] | Structure (SMILES) |
| --- | --- | --- |
| inactive | inactive | Nc1ccn([C@@H]2O[C@H](COP(=O)(S)O[C@H]3[C@@H](O)[C@H](n4cnc5c(N)ncnc54)O[C@@H]3COP(=O)(S)O[C@H]3[C@@H](O)[C@H](n4cnc5c(N)ncnc54)O[C@@H]3CO)[C@@H](OP(=O)(S)OC[C@H]3O[C@@H](n4ccc(=O)[nH]c4=O)[C@H](O)[C@@H]3OP(=O)(S)OC[C@H]3O[C@@H](n4ccc5c(=O)[nH]c(N)nc54)[C@H](O)[C@@H]3OP(=O)(S)OC[C@H]3O[C@@H](n4ccc(N)nc4=O)[C@H](O)[C@@H]3OP(=O)(S)OC[C@H]3O[C@@H](n4ccc5c(=O)[nH]c(N)nc54)[C@H](O)[C@@H]3OP(=O)(S)OC[C@H]3O[C@@H](n4cnc5c(N)ncnc54)[C@H](O)[C@@H]3OP(=O)(S)OC[C@H]3O[C@@H](n4ccc(N)nc4=O)[C@H](O)[C@@H]3OP(=O)(S)OC[C@H]3O[C@@H](n4ccc(=O)[nH]c4=O)[C@H](O)[C@@H]3OP(=O)(S)OC[C@H]3O[C@@H](n4ccc(=O)[nH]c4=O)[C@H](O)[C@@H]3OP(=O)(S)OCC(O)COP(=O)(S)O[C@H]3[C@@H](O)[C@H](n4ccc(=O)[nH]c4=O)O[C@@H]3COP(=O)(S)O[C@H]3[C@@H](O)[C@H](n4ccc(=O)[nH]c4=O)O[C@@H]3COP(=O)(S)O[C@H]3[C@@H](O)[C@H](n4ccc(N)nc4=O)O[C@@H]3COP(=O)(S)O[C@H]3[C@@H](O)[C@H](n4cnc5c(N)ncnc54)O[C@@H]3COP(=O)(S)O[C@H]3[C@@H](O)[C@H](n4ccc5c(=O)[nH]c(N)nc54)O[C@@H]3COP(=O)(S)O[C@H]3[C@@H](O)[C@H](n4ccc(N)nc4=O)O[C@@H]3COP(=O)(S)O[C@H]3[C@@H](O)[C@H](n4ccc5c(=O)[nH]c(N)nc54)O[C@@H]3COP(=O)(S)O[C@H]3[C@@H](O)[C@H](n4ccc(=O)[nH]c4=O)O[C@@H]3COP(=O)(S)O[C@H]3[C@@H](O)[C@H](n4ccc(N)nc4=O)O[C@@H]3COP(=O)(S)O[C@H]3[C@@H](O)[C@H](n4cnc5c(N)ncnc54)O[C@@H]3COP(=O)(S)O[C@H]3[C@@H](O)[C@H](n4cnc5c(N)ncnc54)O[C@@H]3CO)[C@H]2O)c(=O)n1 (stereo partly specified) |
| inactive | inactive | Nc1ccn([C@@H]2O[C@H](COP(=O)(S)O[C@H]3[C@@H](O)[C@H](n4cnc5c(N)ncnc54)O[C@@H]3COP(=O)(S)O[C@H]3[C@@H](O)[C@H](n4ccc5c(=O)[nH]c(N)nc54)O[C@@H]3COP(=O)(S)O[C@H]3[C@@H](O)[C@H](n4ccc(=O)[nH]c4=O)O[C@@H]3CO)[C@@H](OP(=O)(S)OC[C@H]3O[C@@H](n4ccc5c(=O)[nH]c(N)nc54)[C@H](O)[C@@H]3OP(=O)(S)OC[C@H]3O[C@@H](n4cnc5c(N)ncnc54)[C@H](O)[C@@H]3OC[C@H]3O[C@@H](n4ccc(=O)[nH]c4=O)[C@H](O)[C@@H]3OP(=O)(S)ON[C@H]3O[C@@H](n4ccc5c(=O)[nH]c(N)nc54)[C@H](O)[C@@H]3OP(=O)(S)OC[C@H]3O[C@@H](n4cnc5c(N)ncnc54)[C@H](O)[C@@H]3OP(=O)(S)OC[C@H]3O[C@@H](n4ccc(=O)[nH]c4=O)[C@H](O)[C@@H]3OP(=O)(S)OC[C@H]3O[C@@H](n4ccc(=O)[nH]c4=O)[C@H](O)[C@@H]3OP(=O)(S)OCC(O)COP(=O)(S)O[C@H]3[C@@H](O)[C@H](n4ccc(=O)[nH]c4=O)O[C@@H]3COP(=O)(S)O[C@H]3[C@@H](O)[C@H](n4ccc(=O)[nH]c4=O)O[C@@H]3COP(=O)(S)O[C@H]3[C@@H](O)[C@H](n4cnc5c(N)ncnc54)O[C@@H]3COP(=O)(S)O[C@H]3[C@@H](O)[C@H](n4ccc5c(=O)[nH]c(N)nc54)O[C@@H]3NOP(=O)(S)O[C@H]3[C@@H](O)[C@H](n4ccc(=O)[nH]c4=O)O[C@@H]3CO[C@H]3[C@@H](O)[C@H](n4cnc5c(N)ncnc54)O[C@@H]3COP(=O)(S)O[C@H]3[C@@H](O)[C@H](n4ccc5c(=O)[nH]c(N)nc54)O[C@@H]3COP(=O)(S)O[C@H]3[C@@H](O)[C@H](n4ccc(N)nc4=O)O[C@@H]3COP(=O)(S)O[C@H]3[C@@H](O)[C@H](n4cnc5c(N)ncnc54)O[C@@H]3COP(=O)(S)O[C@H]3[C@@H](O)[C@H](n4ccc5c(=O)[nH]c(N)nc54)O[C@@H]3COP(=O)(S)O[C@H]3[C@@H](O)[C@H](n4ccc(=O)[nH]c4=O)O[C@@H]3CO)[C@H]2O)c(=O)n1 (stereo partly specified) |
| inactive | inactive | Nc1ccn([C@@H]2O[C@H](COP(=O)(S)O[C@H]3[C@@H](O)[C@H](n4ccc5c(=O)[nH]c(N)nc54)O[C@@H]3COP(=O)(S)O[C@H]3[C@@H](O)[C@H](n4cnc5c(N)ncnc54)O[C@@H]3COP(=O)(S)O[C@H]3[C@@H](O)[C@H](n4cnc5c(N)ncnc54)O[C@@H]3COP(=O)(S)O[C@H]3[C@@H](O)[C@H](n4ccc5c(=O)[nH]c(N)nc54)O[C@@H]3COP(=O)(S)O[C@H]3[C@@H](O)[C@H](n4ccc(=O)[nH]c4=O)O[C@@H]3COP(=O)(S)O[C@H]3[C@@H](O)[C@H](n4ccc(=O)[nH]c4=O)O[C@@H]3COP(=O)(S)O[C@H]3[C@@H](O)[C@H](n4cnc5c(N)ncnc54)O[C@@H]3COP(=O)(S)O[C@H]3[C@@H](O)[C@H](n4cnc5c(N)ncnc54)O[C@@H]3CO)[C@@H](OP(=O)(S)OC[C@H]3O[C@@H](n4ccc(=O)[nH]c4=O)[C@H](O)[C@@H]3OP(=O)(S)OC[C@H]3O[C@@H](n4ccc5c(=O)[nH]c(N)nc54)[C@H](O)[C@@H]3OP(=O)(S)OCC(O)COP(=O)(S)O[C@H]3[C@@H](O)[C@H](n4ccc5c(=O)[nH]c(N)nc54)O[C@@H]3COP(=O)(S)O[C@H]3[C@@H](O)[C@H](n4ccc(=O)[nH]c4=O)O[C@@H]3COP(=O)(S)O[C@H]3[C@@H](O)[C@H](n4ccc(N)nc4=O)O[C@@H]3COP(=O)(S)O[C@H]3[C@@H](O)[C@H](n4ccc5c(=O)[nH]c(N)nc54)O[C@@H]3COP(=O)(S)O[C@H]3[C@@H](O)[C@H](n4cnc5c(N)ncnc54)O[C@@H]3COP(=O)(S)O[C@H]3[C@@H](O)[C@H](n4cnc5c(N)ncnc54)O[C@@H]3COP(=O)(S)O[C@H]3[C@@H](O)[C@H](n4ccc5c(=O)[nH]c(N)nc54)O[C@@H]3COP(=O)(S)O[C@H]3[C@@H](O)[C@H](n4ccc(=O)[nH]c4=O)O[C@@H]3COP(=O)(S)O[C@H]3[C@@H](O)[C@H](n4ccc(=O)[nH]c4=O)O[C@@H]3COP(=O)(S)O[C@H]3[C@@H](O)[C@H](n4cnc5c(N)ncnc54)O[C@@H]3COP(=O)(S)O[C@H]3[C@@H](O)[C@H](n4cnc5c(N)ncnc54)O[C@@H]3CO)[C@H]2O)c(=O)n1 (stereo partly specified) |
